The values that follow come from paper PMC10150359 (Journal of Medicinal Chemistry, 2023).

Data set [1] has as its system VSV-G-pseudotype virus (pVSV-G). The experiment in a line: microbe, parasite or virus in culture. The data set is classed as cell-based. The note with it: Vesicular stomatitis virus, read-out: %inh@10 µM (pVSV-G).
For data set [2], the system named is EBOV-GP-Pseudotype Virus (pEBOV). The note with it: cited from earlier work.
Data set [3] has as its system wild-type Zaire EBOV Mayinga 1976 strain (EBOV May).
The test system is the same in data set [4]. The experiment in a line: microbe, parasite or virus in culture. The note with it: Zaire ebolavirus, Vero C1008, 72 h, read-out: EC50 (μM), replicative EBOV.
The test system of data set [5] is EBOV-GP-Pseudotype Virus (pEBOV).
Data set [6] shares this test system. In words: microbe, parasite or virus in culture. The settings on record: Zaire ebolavirus, HeLa, 48 h, read-out: EC50 (μM) (pEBOV).
The target of data set [7] is T1, hERG potassium channel (Homo sapiens, UniProt Q12809).
T1 sequence (Q12809 whole entry): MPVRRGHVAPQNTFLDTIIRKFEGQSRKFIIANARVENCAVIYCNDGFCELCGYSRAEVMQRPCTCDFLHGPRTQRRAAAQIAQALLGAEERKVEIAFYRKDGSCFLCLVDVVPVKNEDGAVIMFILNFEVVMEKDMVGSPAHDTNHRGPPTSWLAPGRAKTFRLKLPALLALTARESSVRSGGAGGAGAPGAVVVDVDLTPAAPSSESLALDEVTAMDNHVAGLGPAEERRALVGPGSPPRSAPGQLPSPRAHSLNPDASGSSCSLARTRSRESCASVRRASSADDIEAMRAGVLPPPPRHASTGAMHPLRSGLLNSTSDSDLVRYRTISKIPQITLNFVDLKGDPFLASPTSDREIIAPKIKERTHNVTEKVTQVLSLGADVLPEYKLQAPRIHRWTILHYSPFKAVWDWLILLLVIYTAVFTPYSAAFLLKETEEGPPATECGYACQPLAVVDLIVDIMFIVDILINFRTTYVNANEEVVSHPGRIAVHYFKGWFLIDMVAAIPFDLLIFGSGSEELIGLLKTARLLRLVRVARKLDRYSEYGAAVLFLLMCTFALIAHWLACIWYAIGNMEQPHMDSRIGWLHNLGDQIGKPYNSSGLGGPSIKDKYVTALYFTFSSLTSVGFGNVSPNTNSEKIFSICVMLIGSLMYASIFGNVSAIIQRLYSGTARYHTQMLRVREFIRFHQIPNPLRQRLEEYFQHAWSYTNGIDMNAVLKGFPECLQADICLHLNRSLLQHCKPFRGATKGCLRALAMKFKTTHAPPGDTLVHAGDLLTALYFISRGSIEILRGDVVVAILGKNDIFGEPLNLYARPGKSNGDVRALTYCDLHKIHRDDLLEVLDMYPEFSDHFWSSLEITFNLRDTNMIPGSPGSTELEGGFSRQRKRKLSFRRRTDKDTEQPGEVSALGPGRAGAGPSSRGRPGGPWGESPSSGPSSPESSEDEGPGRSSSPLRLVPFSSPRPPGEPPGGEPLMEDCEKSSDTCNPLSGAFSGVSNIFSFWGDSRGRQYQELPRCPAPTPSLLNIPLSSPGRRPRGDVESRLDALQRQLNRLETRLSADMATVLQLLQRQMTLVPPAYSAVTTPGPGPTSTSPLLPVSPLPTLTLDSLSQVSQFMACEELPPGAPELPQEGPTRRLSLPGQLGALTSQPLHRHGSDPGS
Data set [8] in a line: in vitro. The settings on record: chlorocebus sabaeus.
For data set [9] the following is noted: CD-1, mouse, pH 7.4.
Data set [10] has as its target T1, hERG potassium channel. The experiment in a line: in vitro. The settings on record: pH 7.2.
Data set [11] can be described thus: in vitro. The note with it: CD-1, mouse, microsomes, pH 7.4.
The next data set can be described thus: in vivo. The settings on record: male, BALB/c, mouse; for Cmax at 24 h: Cmax (ng/mL).
The conditions of data set [12]: pH 7.4.
The nature of data set [13]: in vitro. The settings on record: human, microsomes, pH 7.4.
For data set [14] the following is noted: male, BALB/c, mouse, in vivo.
Data set [15] in a line: in vitro. The note with it: human.
The target of another data set is EBOV-GPcl/NPC1-domain C (Zaire ebolavirus, UniProt Q05320). Type of data set: binding, Homo sapiens.
Sequence of EBOV-GPcl/NPC1-domain C (Q05320 33-190 limits assumed): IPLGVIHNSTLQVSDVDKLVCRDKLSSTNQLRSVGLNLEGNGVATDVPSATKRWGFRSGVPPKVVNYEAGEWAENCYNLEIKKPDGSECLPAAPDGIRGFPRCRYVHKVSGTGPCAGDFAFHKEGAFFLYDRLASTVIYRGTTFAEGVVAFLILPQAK
Sequence of EBOV-GPcl/NPC1-domain C (Q05320 502-676 limits assumed): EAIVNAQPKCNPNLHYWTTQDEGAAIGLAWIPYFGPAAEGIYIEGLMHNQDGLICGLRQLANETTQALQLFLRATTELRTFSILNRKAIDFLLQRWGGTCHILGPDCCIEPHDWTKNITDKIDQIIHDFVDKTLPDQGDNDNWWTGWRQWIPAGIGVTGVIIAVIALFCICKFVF
The mark [16] stands for this setting: ip, 10 mg/kg, Brain-Kp (AUClast).
The mark [17] stands for this setting: po, 50 mg/kg, Brain-Kp (AUClast).

Where two headings read alike, the source gives them in different places.

In general, IC50 refers to the concentration at which inhibition is half-maximal. A word on the EC50: it is the concentration needed to bring the measured effect to its halfway point. As to `O=C(CNCCC1CCN(Cc2ccccc2)CC1)Nn1c2ccccc2c2ccccc21` [Compound 1], the inhibition at 10 µM in [1] worked out at 25%. The concentration for half-maximal inhibition (IC50) in [2] is 370 nM. For the same compound, the “SI (CC50/EC50), replicative EBOV” value in [3] is 11.0. Moreover, the results for the EC50 in data set [4] and in data set [6] were 1.5 µM and 0.37 µM, respectively. For the same compound, in [5], the “SI (pEBOV) (CC50/EC50)” value came out at 19.
As a reminder, the half-life is how long it takes for the measured level to halve. Lower therefore signals fast loss. One may read the Cmax as the highest concentration seen after dosing. Turning to `O=C(CCNCCN1CCN(Cc2ccccc2)CC1)NN(c1ccccc1)c1ccccc1` [Compound 13, 3-((2-(4-Benzylpiperazin-1-yl)ethyl)amino)-N′,N′-diphenylpropanehydrazide], on hERG potassium channel [7], the “cardiotoxicity classification from hERG IC50” value is recorded as “not cardiotoxic”. The values for the CC50 at 24 h in the data set “in vitro [8]” and in “in vitro [15]” were 35500 nM and 159000 nM, respectively. Also, the “CLint (mL/min/mg protein), mouse liver microsomes” value in [9] was 170 ± 20 mL/min/mg protein. Also, half-maximal inhibition on hERG potassium channel [10] (IC50) was put at 14900 nM. Moreover, the figures for the half-life at 1 h, 10 µM in “in vitro [11]” and in “in vitro [13]” were 14 ± 2 min and 53 ± 2 min, respectively. Moreover, in [1], the inhibition at 10 µM stood at 42%. For the same compound, the half-life at 24 h in the data set “in vivo” (ip, 10 mg/kg) is 46.2 min; in “in vivo” (po, 50 mg/kg), 262 min. The Kp at 24 h turned out to be 46.4 in “in vivo” (setting [16]); 0.99 in “in vivo” (ip, 10 mg/kg, Brain-Kp (Cmax)); 46.5 in “in vivo” (setting [17]); 3.65 in “in vivo” (po, 50 mg/kg, Brain-Kp (Cmax)). Moreover, the Cmax at 24 h in “in vivo” (ip, 10 mg/kg) worked out at 172 ng/mL. Further, the “CLint (mL/min/mg protein), human liver microsomes” value in data set [12] is 10.8 ± 0.3 mL/min/mg protein. Further, in data set [14] (ip, 10 mg/kg, 24 h), the “Cmax” value turned out to be 170.55 ng/mL. Moreover, the values for the EC50 in [4] and in data set [6] were 2.7 µM and 0.58 µM, respectively. Besides, the “loss of binding between EBOV-GPcl/NPC1-domain C” value at EBOV-GPcl/NPC1-domain C was “interferes with the NPC1/EBOV-GPcl interaction similarly than our hit 1 (SC816)”.
The term AUC(0-t) denotes exposure summed from dosing to a finite time, without extrapolation to infinity. A lower AUC(0-t) goes with less exposure. With `O=C(CCNCCC1CCN(Cc2ccccc2)CC1)NN(c1ccccc1)c1ccccc1` [Compound 11, 3-((2-(1-Benzylpiperidin-4-yl)ethyl)amino)-N′,N′-diphenylpropanehydrazide], at hERG potassium channel [7], the “cardiotoxicity classification from hERG IC50” value is on record as “not cardiotoxic”. For the same compound, the CC50 at 24 h in the data set “in vitro [8]” is 9470 nM; in “in vitro [15]”, 6000 nM. Besides, in data set [9], the “CLint (mL/min/mg protein), mouse liver microsomes” value is listed as 96 ± 23 mL/min/mg protein. For the same compound, half-maximal inhibition at hERG potassium channel [10] (IC50) was put at 16400 nM. Also, the figures for the half-life at 1 h, 10 µM in the data set “in vitro [11]” and in “in vitro [13]” were 26 ± 6 min and 45 ± 3 min, respectively. The inhibition at 10 µM in [1] came out at 50%. In addition, the Kp at 24 h was determined as 2.04 in the data set “in vivo” (setting [16]); 0.18 in the data set “in vivo” (ip, 10 mg/kg, Brain-Kp (Cmax)); 1.66 in “in vivo” (setting [17]); 0.72 in “in vivo” (po, 50 mg/kg, Brain-Kp (Cmax)). In the data set “in vivo” (po, 50 mg/kg), this compound showed a half-life at 24 h of 352 min. The compound further gave an AUC(0-t) at 24 h in “in vivo” (po, 50 mg/kg, AUClast (h × ng/mL)) of 2020 ng·h/mL. The peak level in “in vivo” (po, 50 mg/kg) (Cmax at 24 h) was 278 ng/mL. For the same compound, the “CLint (mL/min/mg protein), human liver microsomes” value in [12] is on record as 13 ± 1 mL/min/mg protein. In data set [14], the “estimated concentration on plasma” value was 0.62 µM. In addition, the “AUClast” value in [14] (po, 50 mg/kg, 24 h) came to 3354.96 ng·h/mL. In addition, in data set [14] (po, 50 mg/kg, 24 h), the “Cmax” value is recorded as 201.45 ng/mL. In addition, the EC50 in data set [4] amounted to 0.3 µM; in data set [6], 0.05 µM. For the same compound, on EBOV-GPcl/NPC1-domain C, the “loss of binding between EBOV-GPcl/NPC1-domain C” value is reported as “does it to a lesser extent”.
